Laboratory results as given in patent publication US5925730A, “GnRH antagonists” (Ferring BV, priority 1997, dated 1999).
Non-standard residues stand in square brackets, D forms with d. Residues, ends and D or L forms follow the SMILES beside them. *: point of attachment. dPhe(4-NHCONH2) = NC(=O)Nc1ccc(C[C@@H](N)C(=O)O)cc1; Phe(4-NHCONH2) = NC(=O)Nc1ccc(C[C@H](N)C(=O)O)cc1; Dihydroorotyl(S) = O=C1C[C@@H](C(=O)*)NC(=O)N1; dPhe(4-NH2) = Nc1ccc(C[C@@H](N)C(=O)O)cc1; dPhe(4-Cl) = N[C@H](Cc1ccc(Cl)cc1)C(=O)O; Phe(4-NH2) = Nc1ccc(C[C@H](N)C(=O)O)cc1; d2Nal = N[C@H](Cc1ccc2ccccc2c1)C(=O)O; Lys(iPr) = CC(C)NCCCC[C@H](N)C(=O)O; d3Pal = N[C@H](Cc1cccnc1)C(=O)O

Columns and labels:
[1] = examination of injected rats for tolerance and gelling at the point of injection; assay type: in vivo; settings: 50 μg per rat sc
[2] = system: secretion of LH; experiment: in vivo rat LH suppression test (circulating LH levels in castrated male rats after sc injection); set-up: species or system castrated male Sprague-Dawley rats; settings: 50 micrograms sc
Method: The peptide is assayed in vivo to determine its effectiveness to suppress the secretion of LH in rats. Measurement of circulating LH levels in castrated male Sprague-Dawley rats treated subcutaneously with the peptide is carried out as reported in C. Rivier et al. Biol. Reproduc., 1983, 29, 374-378. The peptides are first dissolved at a concentration of 1.0 or 10 mg/ml in bacteriostatic water and then further diluted in 0.04 M phosphate buffer containing 0.1% BSA. Subsequent dilutions are made in phosphate buffer. The peptides are injected sc into 5 rats, and blood samples (300 μl) are collected under metotane anesthesia. Sera (50 μl) are tested for LH levels in duplicate using reagents provided by the National Pituitary and Hormone Distribution Program of the NIDDK.

[3] = water solubility compared with Acyline; assay type: physicochemical

## CC(=O)N[C@H](Cc1ccc2ccccc2c1)C(=O)N[C@H](Cc1ccc(Cl)cc1)C(=O)N[C@H](Cc1cccnc1)C(=O)N[C@@H](CO)C(=O)N[C@@H](Cc1ccc(NC(=O)[C@@H]2CC(=O)NC(=O)N2)cc1)C(=O)N[C@H](Cc1ccc(NC(N)=O)cc1)C(=O)N[C@@H](CC(C)C)C(=O)N[C@@H](CCCCNC(C)C)C(=O)N1CCC[C@H]1C(=O)N[C@H](C)C(N)=O [Example 1, Ac-D-2Nal-(4Cl)D-Phe-D-3Pal-Ser-4Aph(hydroorotyl)-D-4Aph(carbamoyl)-Leu-Lys(isopropyl)-Pro-D-Ala-NH2] (Ac-[d2Nal][dPhe(4-Cl)][d3Pal]S[Phe(4-NH2)](Dihydroorotyl(S))[dPhe(4-NHCONH2)]L[Lys(iPr)]P[dA]-NH2)
[1]
  gelling at the point of injection: no significant gelling
  tolerance of the peptide in injected rats: very well tolerated

## CC(=O)Nc1ccc(C[C@H](NC(=O)[C@H](CO)NC(=O)[C@@H](Cc2cccnc2)NC(=O)[C@@H](Cc2ccc(Cl)cc2)NC(=O)[C@@H](Cc2ccc3ccccc3c2)NC(C)=O)C(=O)N[C@H](Cc2ccc(NC(N)=O)cc2)C(=O)N[C@@H](CC(C)C)C(=O)N[C@@H](CCCCNC(C)C)C(=O)N2CCC[C@H]2C(=O)N[C@H](C)C(N)=O)cc1 [Example 1P, Ac-β-D-2Nal-D-4Cpa-D-3Pal-Ser-4Aph(Ac)-D-4Aph(carbamoyl)-Leu-Lys(isopropyl)-Pro-D-Ala-NH2] (Ac-[d2Nal][dPhe(4-Cl)][d3Pal]S[Phe(4-NH2)](Ac)[dPhe(4-NHCONH2)]L[Lys(iPr)]P[dA]-NH2)
[2]
  duration of bioactivity for the suppression of LH (rating in words): long duration
[2]; 96 hours
  suppression of LH compared with Acyline at 96 hours / 4 days (after day 3): slightly superior to Acyline
[2]; days 1-3
  effectiveness in suppression of LH compared with Acyline, day 1 through day 3: substantially the same as Acyline
[3]
  water solubility compared with Acyline: more water soluble than Acyline

## CC(=O)Nc1ccc(C[C@@H](NC(=O)[C@H](Cc2ccc(NC(N)=O)cc2)NC(=O)[C@H](CO)NC(=O)[C@@H](Cc2cccnc2)NC(=O)[C@@H](Cc2ccc(Cl)cc2)NC(=O)[C@@H](Cc2ccc3ccccc3c2)NC(C)=O)C(=O)N[C@@H](CC(C)C)C(=O)N[C@@H](CCCCNC(C)C)C(=O)N2CCC[C@H]2C(=O)N[C@H](C)C(N)=O)cc1 [Example 1Q, Ac-β-D-2Nal-D-4Cpa-D-3Pal-Ser-4Aph(carbamoyl)-D-4Aph(Ac)-Leu-Lys(isopropyl)-Pro-D-Ala-NH2] (Ac-[d2Nal][dPhe(4-Cl)][d3Pal]S[Phe(4-NHCONH2)][dPhe(4-NH2)](Ac)L[Lys(iPr)]P[dA]-NH2)
[2]; days 1-2
  effectiveness in suppression of LH compared with Acyline, first two days: equal to about values of Acyline
[2]; days 3-4
  suppression of LH compared with Acyline at days 3 and 4 (72 and 96 hours; after the first 2 days): not as effective as Acyline
[3]
  water solubility compared with Acyline: more water soluble than Acyline
